In EP4631960A1, “PEPTIDE HAVING INHIBITORY ACTIVITY AGAINST OSTEOCLAST DIFFERENTIATION, AND USE THEREOF” (Caregen Co., Ltd., priority 2022, dated 2024):
Peptide text beside a SMILES is read from it.

Test system: RAW264.7 cells
Test: CCK-8 cytotoxicity evaluation
Type: cell-based
Settings: CCK-8 activity at 450 nm, after 3 days, FIG. 3
Procedure: Then, after 3 days, CCK-8 (Dojindo, CCK-8 kit) solution was added to 1/10 volume of the culture medium, diluted, and incubated for 2 hours. Thereafter, the culture medium was sampled and CCK-8 activity was confirmed at a wavelength of 450 nm using a microplate reader.

**Q.** For `CC[C@H](C)[C@H](N)C(=O)N[C@H](C(=O)N[C@@H](C)C(=O)N1CCC[C@H]1C(=O)N[C@H](C(=O)NCC(=O)N[C@@H](Cc1ccc(O)cc1)C(=O)N[C@@H](Cc1ccc(O)cc1)C(=O)NCC(=O)N[C@@H](CC(N)=O)C(=O)O)[C@@H](C)O)[C@@H](C)CC` [Peptide-2, IIAPTGYYGN] (H-IIAPTGYYGN-OH), which cytotoxicity is on record?
**A.** The cytotoxicity was “did not exhibit cytotoxicity”.
